Test results published in article PMC5473904, “Epigenetic and antitumor effects of platinum(IV)-octanoato conjugates” (Scientific Reports, 2017).

Assays:
DNA from HCT-116 cells = assay: Platinum content on DNA isolated from treated cells (ICP-MS); type: cell-based, human; conditions: for Platinum content on DNA / Platinum on DNA, % from the total intracellular Pt amount: HCT-116, 24 h, 0.35 µM; for Platinum on DNA, % from the total intracellular Pt amount: rough estimate from Tables 2 and 3
Method: (§1) As for antitumor cisplatin and its direct derivatives, DNA is believed to be the target also for Pt(IV) prodrugs examined in the present work.
(§2) The cells were seeded in 150 cm^2 culture flasks at a density 1 × 10^7 cells/flask (67 000 cells/cm^2). After 48-h incubation, the cells were treated with the compounds (0.35 μM) for 24 h. The attached cells were washed twice with PBS (4 °C). As mentioned in the preceding paragraph, 75% of cells were used for analysis of platinum bound to DNA, remaining 25% were used for estimations of cellular accumulation of platinum. Cells were then lysed in DNAzol (DNAzol® genomic DNA isolation reagent, MRC) supplemented with RNase A (100 μg mL^−1). The genomic DNA was precipitated from the lysate with ethanol, dried and resuspended in water. The DNA content in each sample was determined by UV spectrophotometry. The DNA samples were digested in the presence of hydrochloric acid (11 M) using high-pressure microwave mineralization system (MARS5, CEM). The platinum content was determined by ICP-MS. Experiments were performed in triplicate and the values are the means ± SD.

DNA from A2780 cells = assay: as above; type: cell-based, human; conditions: for Platinum content on DNA / Platinum on DNA, % from the total intracellular Pt amount: A2780, 24 h, 0.35 µM; for Platinum on DNA, % from the total intracellular Pt amount: rough estimate from Tables 2 and 3
Method: as §1, §2

[1] = test system: HSF human primary skin fibroblasts; assay: MTT cytotoxicity, 72 h; type: cell-based; conditions: platinum complexes
[2] = test system: LNCaP human prostate adenocarcinoma cells; assay: MTT cytotoxicity, 72 h; type: cell-based; conditions: platinum complexes
[3] = test system: MRC-5 (PD30) human fetal lung fibroblasts; assay: MTT cytotoxicity, 72 h; type: cell-based; conditions: platinum complexes
[4] = Biodistribution of platinum after oral administration (ICP-MS); type: in vivo, C57BL mice; conditions: LLC-bearing mice; for Percentage of the administered drug reaching the tumor mass / Tissue platinum distribution: single oral dose 20 mg kg-1, 4 h; for Platinum concentration in blood: whole blood, single oral dose 20 mg kg-1, 1 and 4 h
Description: It was previously shown for a similar series of dicarboxylato Pt(IV) compounds that organic chains of intermediate length offer the best compromise between lipophilicity and water solubility for oral administration. […] The details of these experiments and their results are described in the Supplementary material and Supplementary Fig. S2. […] In contrast, platinum scarcely accumulated in intestine and lung. Noteworthy, a slightly higher platinum content was found in the tumor mass in the mice treated with Pt(IV)diOA than in those treated with Pt(IV)diVPA. […]
Biodistribution after oral administration
For Pt(IV) complexes having axial carboxylato ligands, the lipophilicity increases as the number of carbon atoms in the chain increases. This lipophilicity increase offers a beneficial effect on the cellular accumulation and in vitro cytotoxic potency up to a point where the drop in water solubility impedes the administration of the drugs (around C8-C10 carbon chains)1,2.
Moreover, excessive lipophilicity can hinder transport of such Pt(IV) derivatives in vivo across intestinal epithelial cells making them more vulnerable to hepatic metabolism.
It was previously shown for a similar series of dicarboxylato Pt(IV) compounds (except the VPA-derivative) that organic chains of intermediate length offer the best compromise between lipophilicity and water solubility for oral administration3. To better understand the biodistribution properties of the Pt(IV) complexes, following administered by oral gavage in a -1 single dose (20 mg kg ), tissue samples collected from LLC-bearing mice were analyzed by ICP-MS. After 1 and 4 h, blood samples were collected and subsequently animals were sacrificed, and tissue samples were collected. The platinum levels in tumor, kidney, liver, intestine, lung and whole blood aliquots are shown in Fig. S2, panels A and B. It is important to recall that using this protocol it is possible to estimate only the overall Pt content and not its oxidation state or speciation [i.e. Pt(IV) metabolites or Pt(II) metabolites produced by reduction and further interactions]. […]
Biodistribution after oral administration. For in vivo kinetic experiments, 8-10 week old C57BL mice (24 ± 3 g body weight) received the drugs as an oral gavage single dose of -1 butanoato, hexanoato, octanoato and valproate Pt(IV) complexes (20 mg kg , dissolved in a vehicle solution composed of 20% Cremophor EL (v/v), 20% PEG400 (v/v) and 60% saline solution (v/v)). At each time point (1 and 4 h, respectively), animals were anesthetized, and blood was collected by a vain tail puncture. In addition, samples of organs (kidney, liver, lung and intestine) and tumor were collected at 4 h and stored at −20 °C. Blood, organ samples and tumor were subjected to quantitative determination of platinum content.−1 The samples were treated with highly pure nitric acid ([Pt] ≤ 0.01 μg kg TraceSELECT Ultra, Sigma Chemical Co.) and transferred into a microwave Teflon vessel. Subsequently, samples were submitted to the standard procedure using a speed microwave. After cooling, each mineralized sample was analyzed for platinum by ICP-MS (ThermoOptek X Series 2). Instrumental settings were optimized to achieve maximum sensitivity for platinum. For quantitative determination, the most abundant isotopes of platinum and indium (used as internal standard) were measured at m/z 195 and 115, respectively.
Accumulation of platinum in tumor cells treated with Pt(IV) complexes and cisplatin (in cellulo experiments) in the absence of serum. A2780 cells were seeded in 10 mm Petri dishes and treated with the platinum complexes (10 μM) for 4 h in complete medium, i.e. + 10 % FBS (HyClone, GE Healthcare). At time zero, 100 μL of medium was taken out from each sample to check the extracellular Pt concentration. At the end of the exposure, cells were washed three times with phosphate-buffered saline (PBS), detached from the Petri dishes using 0.05% Trypsin 1X + 2% EDTA (HyClone, GE Healthcare) and harvested in fresh […]

SMILES | Platinum content on DNA (DNA from HCT-116 cells) | Platinum on DNA, % from the total intracellular Pt amount (DNA from HCT-116 cells) | Platinum content on DNA (DNA from A2780 cells) | Platinum on DNA, % from the total intracellular Pt amount (DNA from A2780 cells) | IC50 [1] | IC50 [2] | IC50 [3] | Increase of DNA platination vs. cisplatin (DNA from HCT-116 cells; HCT-116, Fig. 2B) | Increase of DNA platination vs. Pt(IV)diAc (DNA from HCT-116 cells; HCT-116, Fig. 2D) | Increase of DNA platination vs. cisplatin (DNA from A2780 cells; A2780, Fig. 2A) | Increase of DNA platination vs. Pt(IV)diAc (DNA from A2780 cells; A2780, Fig. 2C) | Percentage of the administered drug reaching the tumor mass [4] | Tissue platinum distribution [4] | Platinum concentration in blood [4]
CC(=O)[O][Pt]([NH2])([NH2])([Cl])([Cl])[O]C(C)=O [Pt(IV)diAc, cis, cis, trans-[Pt(IV)(NH3)2Cl2(Ac)2]] | 1.3 ± 0.1 pg Pt/µg DNA | 2.0% | 1.1 ± 0.4 pg Pt/µg DNA | 1.9% |  |  |  |  |  |  |  |  |  | 
CCCCCCCC(=O)[O][Pt]([NH2])([NH2])([Cl])([Cl])[O]C(=O)CCCCCCC [Pt(IV)diOA, cis, cis, trans-[Pt(IV)(NH3)2Cl2(OA)2]] | 123.1 ± 5.1 pg Pt/µg DNA | 11.9% | 43.3 ± 5.3 pg Pt/µg DNA | 13.0% | 0.077 ± 0.001 µM | 0.052 ± 0.005 µM | 0.052 ± 0.003 µM | 77 x | 95 x | 28 x | 39 x | about 18% | the highest platinum concentrations were found in liver followed by tumor tissue and kidney | around 0.5 μg Pt mL^−1
CCCC(CCC)C(=O)[O][Pt]([NH2])([NH2])([Cl])([Cl])[O]C(=O)C(CCC)CCC [Pt(IV)diVPA, cis, cis, trans-[Pt(IV)(NH3)2Cl2(VPA)2]] |  |  |  |  |  |  |  |  |  |  |  | ~10% | the highest platinum concentrations were found in liver followed by tumor tissue and kidney | around 0.5 μg Pt mL^−1
N.N.[Cl][Pt][Cl] [cisplatin, reference compound] | 1.6 ± 0.2 pg Pt/µg DNA | 2.2% | 1.5 ± 0.6 pg Pt/µg DNA | 2.0% | 69 ± 0.87 µM | 8.54 ± 1.78 µM | 10.6 ± 0.38 µM |  |  |  |  |  |  | 
